From patent US20020019389A1, “Urea derivative useful as an anti-cancer agent and process for preparing same” (priority 2000, published 2002)
≈ marks a conversion by molar mass, not a printed value. Where two headings read alike, the source gives them in different places.

Tests used:
Format in all cases: cell-based
[1] = system: A549 (lung cancer) cell line; assay: Anti-cancer activity in vitro, A549 cell line
Experimental: (§1) The anti-cancer activity and toxicity of the compound according to the present invention were evaluated in vitro using A549 (lung cancer), SUN638 (gastric cancer), HCT116 (rectal cancer), and A431 (ovarian cancer) cell lines. The above four (4) cell lines were purchased from Cancer Research Institute, Seoul National University College of Medicine. […] The experiment was basically carried out according to the process described in Monks, A., et al, Journal of National Cancer Institute. 83: 757-766 (1991) and the results are represented in the following Tables 2 and 3.

[2] = system: HCT116 (rectal cancer) cell line; assay: Anti-cancer activity in vitro, HCT116 cell line
Experimental: as §1

[3] = system: SUN638 (gastric cancer) cell line; assay: Anti-cancer activity in vitro, SUN638 cell line
Experimental: as §1

[4] = system: A431 (ovarian cancer) cell line; assay: Anti-cancer activity in vitro, A431 cell line; settings: A431 Cell Line
Experimental: as §1

[5] = Homo sapiens, A549, read-out: LC50
[6] = Homo sapiens, HCT-116, read-out: LC50
[7] = Homo sapiens, A549 Cell Line, read-out: GI50
[8] = SUN638 Cell Line, read-out: GI50

Structure (SMILES)	GI50 ([1]; A549 Cell Line) [mg/L]	LC50 ([1]; A549 Cell Line) [mg/L]	TGI50 ([1]; A549 Cell Line) [µg/mL]	GI50 ([2]; HCT116 Cell Line) [mg/L]	LC50 ([2]; HCT116 Cell Line) [mg/L]	TGI50 ([2]; HCT116 Cell Line) [µg/mL]	GI50 ([3]; SUN638 Cell Line) [mg/L]	LC50 ([3]; SUN638 Cell Line) [mg/L]	TGI50 ([3]; SUN638 Cell Line) [µg/mL]	GI50 [4] [mg/L]	LC50 [4] [mg/L]	TGI50 [4] [µg/mL]	GI50 ([1]; Homo sapiens, A549) [mg/L]	LC50 [1, 5] [mg/L]	GI50 ([2]; Homo sapiens, HCT-116) [mg/L]	LC50 [2, 6] [mg/L]	GI50 [3] [mg/L]	LC50 ([3]; read-out: LC50) [mg/L]	GI50 [1, 7] [mg/L]	GI50 [3, 8] [mg/L]
COc1cc2c(cc1OC)[C@@H](c1ccccc1)CN(C(=O)Nc1nc3ccccc3nc1OC)CC2 [Compound 4, 3-[N-(2-methoxyquinoxalin-3-yl)aminocarbonyl]-(R)-7,8-dimethoxy-1-phenyl-2,3,4,5-tetrahydro-3H-benzazepine]	1.20 (≈ 2.48 µM)	>100	100	0.12 (≈ 0.248 µM)	>100	3.54	1.86 (≈ 3.84 µM)	>100	6.76	–	–	–	–	–	–	–	–	–	–	–
Cc1cc(C)cc(N2CCN(C(=O)Nc3nc4ccccc4[n+]([O-])n3)CC2)c1 [Compound 28, 1-[(benzo-1,2,4-triazin-1-N-oxide-3-yl)aminocarbonyl]-4-(3,5-dimethylphenyl)piperazine]	1.31 (≈ 3.46 µM)	>100	34.67	–	–	–	1.99 (≈ 5.26 µM)	>100	7.07	–	–	–	–	–	–	–	–	–	–	–
COc1cc2c(cc1OC)[C@H](c1ccccc1)CN(C(=O)Nc1nc3ccccc3nc1OC)CC2 [Compound 3, 3-[N-(2-methoxyquinoxalin-3-yl)aminocarbonyl]-(S)-7,8-dimethoxy-1-phenyl-2,3,4,5-tetrahydro-3H-benzazepine]	1.31 (≈ 2.7 µM)	>100	5.62	1.31 (≈ 2.7 µM)	>100	5.62	1.47 (≈ 3.03 µM)	>100	9.33	2.04 (≈ 4.21 µM)	>100	26.30	–	–	–	–	–	–	–	–
COc1cc2c(cc1OC)C(c1ccccc1)CN(C(=S)n1ccnc1)CC2 (stereo not drawn) [Compound 67, 3-[(1H-imidazol-1-yl)thiocarbonyl]-7,8-dimethoxy-1-phenyl-2,3,4,5-tetrahydro-3H-benzazepine]	0.66 (≈ 1.68 µM)	>100	17.78	0.23 (≈ 0.584 µM)	>100	13.48	1.51 (≈ 3.84 µM)	>100	8.12	0.70 (≈ 1.78 µM)	>100	30.19	–	–	–	–	–	–	–	–
COc1cc2c(cc1OC)C(c1ccc(F)cc1)CN(C(=O)Nc1nc3ccccc3nc1OC)CC2 (stereo not drawn) [Compound 5, 3-[N-(2-methoxyquinoxalin-3-yl)aminocarbonyl]-7,8-dimethoxy-1-(4-fluoro)phenyl-2,3,4,5-tetrahydro-3H-benzazepine]	2.08 (≈ 4.14 µM)	>100	46.98	0.15 (≈ 0.298 µM)	>100	4.07	1.69 (≈ 3.36 µM)	>100	6.16	–	–	–	–	–	–	–	–	–	–	–
COc1cc2c(cc1OC)[C@@H](c1ccccc1)CN(C(=O)n1ccnc1)CC2 [Compound 68, 3-[(1H-imidazol-1-yl)carbonyl]-(R)-7,8-dimethoxy-1-phenyl-2,3,4,5-tetrahydro-3H-benzazepine]	0.23 (≈ 0.609 µM)	>100	100	0.24 (≈ 0.636 µM)	>100	10.96	0.22 (≈ 0.583 µM)	>100	97.72	–	–	–	–	–	–	–	–	–	–	–
COc1ccc2c(c1)C(c1ccccc1)CN(C(=O)n1ccnc1)CC2 (stereo not drawn) [Compound 72, 3-[(1H-imidazol-1-yl)carbonyl]-8-methoxy-1-phenyl-2,3,4,5-tetrahydro-3H-benzazepine]	2.23 (≈ 6.42 µM)	>100	100	0.10 (≈ 0.288 µM)	>100	9.42	1.44 (≈ 4.14 µM)	>100	7.24	–	–	–	–	–	–	–	–	–	–	–
CCOc1nc2ccccc2nc1NC(=O)N1CCc2cc(OC)c(OC)cc2C(c2ccccc2)C1 (stereo not drawn) [Compound 7, 3-[N-(2-ethoxyquinoxalin-3-yl)aminocarbonyl]-7,8-dimethoxy-1-phenyl-2,3,4,5-tetrahydro-3H-benzazepine]	3.38 (≈ 6.78 µM)	>100	100	0.15 (≈ 0.301 µM)	>100	4.08	2.45 (≈ 4.91 µM)	>100	7.41	–	–	–	–	–	–	–	–	–	–	–
COc1cc2c(cc1OC)[C@H](c1ccccc1)CN(C(=O)n1ccnc1)CC2 [Compound 69, 3-[(1H-imidazol-1-yl)carbonyl]-(S)-7,8-dimethoxy-1-phenyl-2,3,4,5-tetrahydro-3H-benzazepine]	0.36 (≈ 0.954 µM)	>100	97.72	0.13 (≈ 0.344 µM)	>100	10.71	0.13 (≈ 0.344 µM)	>100	3.63	–	–	–	–	–	–	–	–	–	–	–
COc1cc(OC)cc(N2CCN(C(=O)n3ccnc3)CC2)c1 [Compound 58, 1-[(1H-imidazol-1-yl)carbonyl]-4-(3,5-dimethoxyphenyl) piperazine]	–	–	–	–	–	–	–	–	–	–	–	–	2.75 (≈ 8.69 µM)	> 100	0.66 (≈ 2.09 µM)	> 100	2.39 (≈ 7.55 µM)	> 100	–	–
C=C(C)CN(CC)c1nc(N2CCN(C(=O)n3ccnc3)CC2)nc(N(CC)CC(=C)C)n1 [Compound 63, 1-[(1H-imidazol-1-yl)carbonyl]-4-{4,6-bis-[ethyl-(2-methylallyl)amino]-[1,3,5]triazin-2-yl}piperazine]	–	–	–	–	–	–	–	–	–	–	–	–	2.23 (≈ 4.92 µM)	> 100	1.77 (≈ 3.9 µM)	> 100	1.81 (≈ 3.99 µM)	> 100	–	–
COc1cc2c(cc1OC)C(c1ccccc1)CN(C(=O)Nc1cc(C)c(C)nc1OC)CC2 (stereo not drawn) [Compound 1, 3-[N-(5,6-dimethyl-2-methoxypyridin-3-yl)aminocarbonyl]-7,8-dimethoxy-1-phenyl-2,3,4,5-tetrahydro-3H-benzazepine]	1.21 (≈ 2.62 µM)	>100	39.81	–	–	–	1.99 (≈ 4.31 µM)	>100	7.07	–	–	–	–	–	–	–	–	–	–	–
C=CCN(CC=C)c1nc(N(CC=C)CC=C)nc(N2CCN(C(=O)Nc3nc4ccccc4nc3OC)CC2)n1 [Compound 53]	2.75 (≈ 4.94 µM)	>100	8.91	–	–	–	2.18 (≈ 3.92 µM)	>100	5.49	–	–	–	–	–	–	–	–	–	–	–
COc1ccc(C#N)cc1NC(=O)N1CCN(c2cc(C)cc(C)c2)CC1 [Compound 26, 1-[(2-methoxy-5-cyanophenyl)aminocarbonyl]-4-(3,5-dimethylphenyl)piperazine]	–	–	–	–	–	–	–	–	–	–	–	–	–	> 100	–	–	–	> 100	1.36 (≈ 3.73 µM)	2.51 (≈ 6.89 µM)
O=C(N1CCC(c2ccccc2)(c2ccccc2)CC1)n1ccnc1 [Compound 80, 1-[(1H-imidazol-1-yl)carbonyl]-4,4-diphenyl-piperidine]	–	–	–	–	–	–	–	–	–	–	–	–	1.38 (≈ 4.16 µM)	> 100	1.47 (≈ 4.44 µM)	> 100	1.62 (≈ 4.89 µM)	> 100	–	–
COc1ccc2c(c1)C(c1ccc(Cl)cc1)CN(C(=O)n1ccnc1)CC2 (stereo not drawn) [Compound 74, 3-[(1H-imidazol-1-yl)carbonyl]-8-methoxy-1-(4-chloro)phenyl-2,3,4,5-tetrahydro-3H-benzazepine]	–	–	–	1.44 (≈ 3.77 µM)	>100	7.24	–	–	–	–	–	–	–	–	–	–	–	–	–	–
COc1cc2c(cc1OC)C(c1ccc(Cl)cc1)CN(C(=O)Nc1nc3ccccc3nc1OC)CC2 (stereo not drawn) [Compound 6, 3-[N-(2-methoxyquinoxalin-3-yl)aminocarbonyl]-7,8-dimethoxy-1-(4-chloro)phenyl-2,3,4,5-tetrahydro-3H-benzazepine]	2.69 (≈ 5.18 µM)	>100	100	0.39 (≈ 0.751 µM)	>100	3.31	1.90 (≈ 3.66 µM)	>100	6.91	–	–	–	–	–	–	–	–	–	–	–
COc1cc2c(cc1OC)C(c1ccc(Cl)cc1)CN(C(=O)n1ccnc1)CC2 (stereo not drawn) [Compound 71, 3-[(1H-imidazol-1-yl)carbonyl]-7,8-dimethoxy-1-(4-chloro)phenyl-2,3,4,5-tetrahydro-3H-benzazepine]	4.78 (≈ 11.6 µM)	>100	93.32	2.69 (≈ 6.53 µM)	>100	14.12	2.63 (≈ 6.39 µM)	>100	9.12	–	–	–	–	–	–	–	–	–	–	–
COc1nc2ccccc2nc1NC(=O)N1CCC(c2ccccc2)(c2ccccc2)CC1 [Compound 16, 1-[N-(2-methoxyquinoxalin-3-yl)aminocarbonyl]-4,4-diphenyl-piperidine]	–	–	–	–	–	–	–	–	–	–	–	–	–	> 100	–	–	–	> 100	1.02 (≈ 2.33 µM)	0.15 (≈ 0.342 µM)
O=C(NC(c1ccccc1)c1ccccc1)N1CCC(c2ccccc2)(c2ccccc2)CC1 [Compound 17, 1-[N-(diphenylmethyl)aminocarbonyl]-4,4-diphenyl-piperidine]	–	–	–	–	–	–	–	–	–	–	–	–	–	> 100	–	–	–	> 100	6.45 (≈ 14.4 µM)	0.63 (≈ 1.41 µM)
